Among the data in ChEMBL document CHEMBL1154779, “Synthesis and adrenolytic activity of 1-(1H-indol-4-yloxy)-3-(2-(2-methoxy phenoxy)ethylamino)propan-2-ol analogs and its enantiomers. Part 2” (Eur J Med Chem, 2009) are ED50, Activity and Ki values, retold here.

Assay [1] deals with Rattus norvegicus. Description: Antiarrhythmic activity in Wistar rat assessed as inhibition of adrenaline-induced premature ventricular beats at 1 mg/kg, iv administered 15 mins before adrenaline challenge measured after 15 mins by electrocardiography. The class given is functional. The note with it: Heart.
Assay [2] deals with Rattus norvegicus. Description: Effect on heart rate in anesthetized Wistar rat assessed as heart beats per min at 1 mg/kg, iv after 5 mins by electrocardiography. The class given is functional.
Assay [3] has as its system Rattus norvegicus. Description: Effect on heart rate in anesthetized Wistar rat assessed as P-Q intervals time at 1 mg/kg, iv after 1 min by electrocardiography. The class given is functional.
Assay [4] concerns Rattus norvegicus. Description: Effect on heart rate in anesthetized Wistar rat assessed as heart beats per min at 1 mg/kg, iv after 1 min by electrocardiography. The class given is functional.
Assay [5] deals with Rattus norvegicus. Description: Effect on heart rate in anesthetized Wistar rat assessed as Q-T intervals time at 1 mg/kg, iv after 1 min by electrocardiography. The class given is functional.
The subject of assay [6] is Rattus norvegicus. Description: Effect on heart rate in anesthetized Wistar rat assessed as heart beats per min at 1 mg/kg, iv after 15 mins by electrocardiography. The class given is functional.
Assay [7] deals with Rattus norvegicus. Description: Effect on heart rate in anesthetized Wistar rat assessed as Q-T intervals time at 1 mg/kg, iv after 15 mins by electrocardiography. The class given is functional.
Assay [8] is described as follows: Displacement of [3H]CGP12177 from beta-1 adrenergic receptor in Wistar rat cerebral cortex membrane by liquid scintillation counting. The class given is tissue-based.
Assay [9] concerns Rattus norvegicus. Description: Effect on heart rate in anesthetized Wistar rat assessed as QRS complex time at 1 mg/kg, iv after 1 min by electrocardiography. The class given is functional.
Assay [10] concerns Rattus norvegicus. Description: Effect on heart rate in anesthetized Wistar rat assessed as QRS complex time at 1 mg/kg, iv after 15 mins by electrocardiography. The class given is functional.
Assay [11] has as its system Rattus norvegicus. Description: Effect on heart rate in anesthetized Wistar rat assessed as Q-T intervals time at 1 mg/kg, iv after 5 mins by electrocardiography. The class given is functional.
For assay [12], the system named is Rattus norvegicus. Description: Effect on heart rate in anesthetized Wistar rat assessed as P-Q intervals time at 1 mg/kg, iv after 5 mins by electrocardiography. The class given is functional.
In assay [13] the test system is Rattus norvegicus. Description: Effect on heart rate in anesthetized Wistar rat assessed as P-Q intervals time at 1 mg/kg, iv after 15 mins by electrocardiography. The class given is functional.
Assay [14] has as its system Rattus norvegicus. Description: Effect on heart rate in anesthetized Wistar rat assessed as QRS complex time at 1 mg/kg, iv after 5 mins by electrocardiography. The class given is functional.

A word on the ED50: it is the midpoint of the dose-response relation. The term Ki denotes a dissociation constant, usually derived from enzyme kinetics or from competition with a known ligand. Low readings indicate tighter binding, high ones weaker binding.

Turning to `COc1ccccc1OCCNCC(O)COc1cccc2[nH]c3ccccc3c12` (stereo not drawn) [CARVEDILOL], in the assay with Rattus norvegicus [1], the median effective dose (ED50) stood at 0.25 mg/kg. Besides, the Activity in the assay with Rattus norvegicus [2] is given as 340.3 bpm; in the assay on Rattus norvegicus [3], 50 ms; with Rattus norvegicus [4] it was 345.2 bpm.

Regarding `COc1ccccc1OCCNCC(O)COc1cccc2[nH]ccc12` (racemic), the ED50 in the assay with Rattus norvegicus [1] came to 0.34 mg/kg. Also, the Activity is listed as 69.2 ms with Rattus norvegicus [5]; 287.3 bpm in the assay on Rattus norvegicus [6]; 72.8 ms with Rattus norvegicus [7]; 294.5 bpm in the assay with Rattus norvegicus [2]; 47.2 ms in the assay with Rattus norvegicus [3]; 28.4 ms in the assay on Rattus norvegicus [9]. Also, the Activity worked out at 26.9 ms with Rattus norvegicus [10]; 69 ms with Rattus norvegicus [11]; 48.1 ms in the assay on Rattus norvegicus [12]; 46.2 ms in the assay with Rattus norvegicus [13]; 24.9 ms in the assay with Rattus norvegicus [14]; 298.7 bpm in the assay with Rattus norvegicus [4]. Also, the Ki in assay [8] was 3 nM.
